B1: interleukin-10 (protein, UniProt P18893 19-178, looked up)
Interleukin-10: SRGQYSREDNNCTHFPVGQSHMLLELRTAFSQVKTFFQTKDQLDNILLTDSLMQDFKGYLGCQALSEMIQFYLVEVMPQAEKHGPEIKEHLNSLGEKLKTLRMRLRRCHRFLPCENKSKAVEQVKSDFNKLQDQGVYKAMNEFDIFINCIEAYMMIKMKS

Legend:
[1] = tested on: rats with surgical manipulation of the intestine; assay: Rat in vivo gastrointestinal transit of fluorescein-labeled dextran (geometric center); settings: surgically manipulated rats, 24 h postoperatively, i.v. pretreatment 1 h before surgery; glycine 170 mg/kg, valine 263.5 mg/kg; SM vehicle GC=5.2±0.7
Method: (§1) Age matched animals treated with vehicle (normal saline) or valine (263.5 mg/kg, osmotic control) at appropriate time points and at equal volumes served as controls.
(§2) The rodent intestine was subjected to a standardized degree of surgical manipulation as described previously (14). Rats were anesthetized by isoflurane inhalation and the abdomen was opened by a midline laparotomy. The cecum was eventrated and laid out onto a moist gauze. Then, the intestine was inspected along its length and gently compressed using moist cotton applicators. The midline incision was closed by two layers of continuous sutures. All operative procedures were performed under sterile conditions with the intestine being handled only by instruments and never touched directly. Animals were killed at specific time points postoperatively by isoflurane anesthesia inhalation overdose and heart incision.
(§3) Methods: ACI-rats (180-220 g) underwent standardized surgical manipulation of the intestine. […] Age matched animals treated with vehicle or valine (osmotic control) at appropriate time points and at equal volumes served as controls. […] Postoperative mediator mRNA expression in the intestinal muscularis was determined by real-time RT PCR. Leukocyte extravasation was investigated in muscularis whole-mounts. Nitrite production was measured in muscularis cultures. In vivo transit of FITC-dextran was measured using geometric center analysis (GC). In vitro circular muscle contractility was assessed in a standard organ bath. Statistical analysis: unpaired Student t test, p<0.05, mean±SEM.

[2] = tested on: jejunal circular smooth muscle; assay: In vitro bethanechol stimulated contractile activity of jejunal circular muscle strips; assay type: in vivo, rat; settings: manipulated rats, 170 mg/kg glycine or valine pretreatment, 100 mM bethanechol; control 3.2±0.2, SM vehicle 1.9±0.1
Method: as §1, §2
Mechanical in vitro activity of the rat mid-jejunum was evaluated at 24 hours postoperatively using smooth muscle strips of the circular muscularis as described previously (rats: N=5-11) (14). After dissection and a 30 minute equilibration period, the individual muscles were incrementally stretched to L0. Then after recording spontaneous contractility for 30 minutes, dose response curves were generated using increasing concentrations of the muscarinic agonist bethanechol ([…]) for 10 minutes and intervening wash periods (KRB) of 10 minutes. The contractile response was recorded and analyzed as g/mm2/sec over a 10 minute period.
as §3

IL-6 mRNA = assay: Real-time RT-PCR of muscularis IL-6 mRNA 3 hours postoperatively; assay type: in vivo, rat; settings: surgically manipulated rats, 3 hours postoperatively
Method: as §1, §2
mRNA Expression Analysis: Postoperative mediator mRNA expressions in the small intestinal muscularis were analyzed using SYBR Green two-step real-time RT-PCR as previously described, (N=4-6). […] Total mRNA extraction was performed using the guanidium-thiocyanate phenol-chloroform extraction method. Equal aliquots (200 ng) of total RNA from each sample, quantified by spectrophotometer, were processed for complimentary DNA (cDNA) synthesis. Primer sequences were used as described previously (tumor necrosis factor-a, TNF-a) (35), or designed according to published sequences 36-41, (GenBank accession numbers: NM_017008 [glyceraldehyde phosphate dehydrogenase (GAPDH)], AF233596 [cyclo-oxygenase-2 (COX-2)], NM_012967 [intercellular adhesion molecule-1 (ICAM-1)], M26744 [interleukin-6 (IL-6)] and NM_012611 [inducible nitric oxide synthase (iNOS)]), using Primer Express software (PE Applied Biosystems, Foster City, Calif.) and purchased from Life Technologies (Rockville, Md.). GAPDH was used as an endogenous control. The efficiency and equality of the real-time PCR primer pairs were determined by amplifying serial dilutions of muscularis cDNA. For each target gene different MgCl2 (3 to 5 mM) concentrations were tested to optimize the PCR amplification. […] Relative quantification was performed using the comparative CT method as described by Schmittgen et al. (42).
Methods: ACI-rats (180-220 g) underwent standardized surgical manipulation of the intestine. […] Postoperative mediator mRNA expression in the intestinal muscularis was determined by real-time RT PCR. […] Nitrite production was measured in muscularis cultures. In vivo transit of FITC-dextran was measured using geometric center analysis (GC). In vitro circular muscle contractility was assessed in a standard organ bath. […]

[3] = tested on: MPO positive leukocytes in the intestinal muscularis; assay: Myeloperoxidase (MPO) histochemistry: leukocyte infiltration in muscularis whole-mounts; assay type: in vivo, rat; settings: manipulated rats, 24 h postoperatively; glycine 170 mg/kg or valine (263.5 mg/kg); SM vehicle 95±6.4
Method: as §1, §2
Histochemistry and Immunohistochemistry: Leukocyte infiltration was quantified on rat whole-mounts of the intestinal muscularis as described previously (N=6-8) (43). Myeloperoxidase (MPO) positive cells were detected using a mixture of 30 mg Hanker-Yates reagent, 30 ml KRB and […] 3% hydrogen peroxide for 10 minutes. Leukocytes were counted in 5 randomly chosen areas in each specimen (3 specimen per animal) at a magnification of 200×.
as §3

nitrite (nitric oxide) = assay: Nitrite release (Griess reaction) from organ cultured muscularis; assay type: in vivo, rat; settings: manipulated rats, glycine 170 mg/kg or valine
Method: as §1, §2
Tissue culture and determination of nitrite and prostanoid release in supernatant: The rat small intestine and colon were processed for tissue culture at 24 hours as described previously, (N=5-8) (25). Briefly, the muscularis was isolated by stripping the muscularis from the mucosa and then cut into small pieces and washed twice in Hank's balanced salt solution (HBSS) with 100 U/ml penicillin G and 100 μg/ml streptomycin. Aliquots of muscularis ([…]) were incubated (37° C., 5% CO2) in 6-well tissue culture plates containing 3 ml of supplemented Dulbecco's modified Eagle medium (DMEM)-F12 with 100 U/ml penicillin G and 100 μg/ml streptomycin. After an incubation period of 24 hours, 500 μl aliquots of supernatant were collected, frozen in liquid nitrogen and stored at −80° C. The muscle tissue was blotted dry, and the weight was estimated. To estimate the generation of NO from the intestinal muscularis, nitrite production was measured by the Griess reaction (44). Supernatant from the tissue culture was mixed with equal amount of Griess reagent (0.1% N-(1-naphtyl)ethyl-enediamine dihydrochloride and 1% sulfanilamide in 6% phosphoric acid; 1:1) and incubated at room temperature for 10 minutes. The absorbance at 550 nm was measured with a microplate reader and compared with standard prepared from serial dilutions of sodium nitrite. Each standard and supernatant sample was analyzed in duplicate, and the mean value of nitrite production was normalized to the tissue weight.
as §3

prostanoids [4] = assay: Prostanoid release (ELISA) from organ cultured muscularis; assay type: in vivo, rat; settings: manipulated rats, glycine 170 mg/kg or valine
Method: Age matched animals treated with vehicle (normal saline) or valine (263.5 mg/kg, osmotic control) at appropriate time points and at equal volumes served as controls. The rodent intestine was subjected to a standardized degree of surgical manipulation as described previously (14). Rats were anesthetized by isoflurane inhalation and the abdomen was opened by a midline laparotomy. The cecum was eventrated and laid out onto a moist gauze. Then, the intestine was inspected along its length and gently compressed using moist cotton applicators. The midline incision was closed by two layers of continuous sutures. All operative procedures were performed under sterile conditions with the intestine being handled only by instruments and never touched directly. Animals were killed at specific time points postoperatively by isoflurane anesthesia inhalation overdose and heart incision. The synthesis of prostanoids released into the tissue culture supernatant over a period of 24 hours was assayed by ELISA. After incubation the culture median and tissue was inspected, 500 μL aliquots of supernatant were frozen in liquid nitrogen and stored at −80° C. The muscle tissue was blotted dry and weighed. Culture supernatants were assayed for the measurement of prostaglandin secretion by enzyme immunoassay (Cayman Chemicals, Ann Arbor, Mich.). The ELISA was carried out in a 1:10 and 1:30 dilution. The assay was corrected for wet tissue weights and the prostaglandin ELISA kit sensitivity was 20 pg/ml.

[5] = tested on: mice subjected to surgical intestinal manipulation (SM); assay: Gastrointestinal transit (geometric center) after surgical intestinal manipulation, IL-10 treatment; assay type: in vivo; settings: SM + IL-10 12.5 μg/kg s.c. before and after; control=10.6±0.3, SM=4.6±0.6
Method: (§4) Methods: Mice were subjected to surgical intestinal manipulation (SM) to induce ileus. Before and after animals were treated with IL-10 (12.5 μg/kg, s.c.). Gastrointestinal transit and organ bath measured motility. Histochemistry on jejunal muscularis whole-mounts quantified neutrophil recruitment. Muscularis mediator expressions were measured by RT-PCR, Griess reaction, ELISA and Luminex (N=4 each).

jejunal circular muscle = assay: Organ bath: jejunal circular muscle contractions to bethanechol, IL-10 treatment; assay type: in vivo, mice; settings: SM + IL-10 12.5 μg/kg s.c.; 100 μM bethanechol; SM alone 59.2±4.8%
Method: as §4

[6] = tested on: muscularis neutrophil recruitment; assay: Histochemistry on jejunal muscularis whole-mounts: neutrophil recruitment, IL-10 treatment; assay type: in vivo, mice; settings: IL-10 treatment compared to SM with vehicle
Method: as §4

[7] = tested on: IL-6, IL-1β and MCP 1 mRNAs; assay: RT-PCR of muscularis mediator mRNAs, IL-10 treatment; assay type: in vivo, mice; settings: treated animals vs SM
Method: as §4

[8] = tested on: GM-CSF, VEGF, IL-1α, IL-6, MCP-1 and MIP-1α; assay: Luminex mediator release from muscularis, IL-10 treatment; assay type: in vivo, mice; settings: SM + IL-10 vs SM
Method: as §4

NO = assay: Griess reaction NO release from muscularis, IL-10 treatment; assay type: in vivo, mice; settings: SM + IL-10; control=47.1, SM=607.7
Method: as §4

prostanoids [9] = assay: ELISA prostanoid release from muscularis, IL-10 treatment; assay type: in vivo, mice; settings: SM + IL-10; control=4033.4, SM=13111
Method: as §4

Molecule | geometric center (GC) of gastrointestinal transit [1] | mean contractile force, bethanechol stimulated [2] | postoperative induction of IL-6 mRNA (IL-6 mRNA) | infiltrating MPO positive leukocytes [3] | nitrite release, fold increase over control, colon (nitrite (nitric oxide); colonic muscularis 24 h organ culture, SM vehicle 10.9-fold) | nitrite release, fold increase over control, jejunum (nitrite (nitric oxide); jejunal muscularis 24 h organ culture, SM vehicle 11.4-fold) | prostanoid release, fold of control, colon (prostanoids [4]; colonic muscularis 24 h organ culture, SM 3.1-fold) | prostanoid release, fold of control, jejunum (prostanoids [4]; jejunal muscularis 24 h organ culture, SM 5.9-fold) | geometric center (GC) of gastrointestinal transit [5] | jejunal circular muscle contractions to bethanechol, % of control (jejunal circular muscle) | muscularis neutrophil recruitment [6] | induction of IL-6, IL-1β and MCP 1 mRNAs after SM [7] | mediator release (GM-CSF, VEGF, IL-1α, IL-6, MCP-1 and MIP-1α) [8] | NO release (NO) | prostanoids (PG) release (prostanoids [9])
CC(C)[C@H](N)C(=O)O [valine, reference compound] | 6.2±0.5 | 2.1±0.2 g/mm2/s | no effect | 93±2.7 cells/field at 200× | 9.5 fold | 12.0 fold | 1.5 fold | 3.4 fold | – | – | – | – | – | – | –
B1 | – | – | – | – | – | – | – | – | 10.8±0.4 | 93.6±21.1% | significantly less | less induction | significantly diminished | 49.1 µM/g | 3946.7 pg/mL/mg

Source: patent US20090238792A1, “SUPPRESSION OF POSTOPERATIVE ILEUS” (University of Pittsburgh of the Commonwealth System of …, priority 2007, published 2009)
